The values that follow come from ChEMBL document CHEMBL4808235, “Identification of 6-hydroxy-5-phenyl sulfonylpyrimidin-4(1H)-one APJ receptor agonists” (Bioorg Med Chem Lett, 2021).

In data set [1] the target is T1, Apelin receptor (Homo sapiens, UniProt P35414).
T1 sequence (P35414 whole entry): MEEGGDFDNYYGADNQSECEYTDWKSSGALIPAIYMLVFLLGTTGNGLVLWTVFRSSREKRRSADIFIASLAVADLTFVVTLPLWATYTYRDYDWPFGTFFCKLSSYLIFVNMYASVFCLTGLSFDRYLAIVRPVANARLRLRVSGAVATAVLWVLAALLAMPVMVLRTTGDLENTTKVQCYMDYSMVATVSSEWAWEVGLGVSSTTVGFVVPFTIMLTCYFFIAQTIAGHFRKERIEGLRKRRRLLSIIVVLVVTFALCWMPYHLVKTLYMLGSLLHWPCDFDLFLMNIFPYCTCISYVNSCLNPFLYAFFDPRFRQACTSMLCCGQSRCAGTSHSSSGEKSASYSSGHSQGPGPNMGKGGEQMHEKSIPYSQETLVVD
As to the kind of experiment: Agonist activity at human APJ receptor assessed as effect on cAMP accumulation by cAMP-Glo assay. The class given is functional. A general note: Cyclic AMP is a second messenger, typically raised through Gs and lowered through Gi signalling.

Data set [2] has as its target T2, Apelin receptor (Rattus norvegicus, UniProt Q9JHG3).
T2 sequence (Q9JHG3 whole entry): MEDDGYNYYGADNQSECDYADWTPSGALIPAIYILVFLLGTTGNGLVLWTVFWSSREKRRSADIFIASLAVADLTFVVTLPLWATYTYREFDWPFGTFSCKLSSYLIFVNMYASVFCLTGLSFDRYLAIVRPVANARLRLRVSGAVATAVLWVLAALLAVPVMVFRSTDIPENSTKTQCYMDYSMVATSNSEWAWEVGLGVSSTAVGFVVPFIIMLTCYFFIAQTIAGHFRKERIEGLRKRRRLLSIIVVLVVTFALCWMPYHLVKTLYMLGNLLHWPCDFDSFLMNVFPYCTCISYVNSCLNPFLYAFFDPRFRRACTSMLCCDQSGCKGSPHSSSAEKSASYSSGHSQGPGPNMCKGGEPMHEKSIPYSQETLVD
As to the kind of experiment: Agonist activity at rat APJ receptor assessed as effect on cAMP accumulation by cAMP-Glo assay. Type of data set: functional.

The target in data set [3] is T3, Apelin receptor (Mus musculus, UniProt Q9WV08).
T3 sequence (Q9WV08 whole entry): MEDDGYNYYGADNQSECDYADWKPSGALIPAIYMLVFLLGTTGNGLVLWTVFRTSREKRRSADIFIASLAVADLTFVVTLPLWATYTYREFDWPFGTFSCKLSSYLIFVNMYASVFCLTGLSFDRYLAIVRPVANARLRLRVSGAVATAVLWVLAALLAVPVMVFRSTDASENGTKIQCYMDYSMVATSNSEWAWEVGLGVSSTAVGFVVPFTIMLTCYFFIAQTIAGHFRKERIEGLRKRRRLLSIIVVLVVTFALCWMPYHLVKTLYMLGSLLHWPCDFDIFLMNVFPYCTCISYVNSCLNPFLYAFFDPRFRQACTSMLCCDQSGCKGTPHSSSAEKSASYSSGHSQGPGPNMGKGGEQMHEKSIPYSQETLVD
As to the kind of experiment: Agonist activity at mouse APJ receptor assessed as effect on cAMP accumulation by cAMP-Glo assay.

A short description of data set [4]: Metabolic stability in human liver microsomes assessed as parent compound remaining incubated for 10 mins in presence of NADPH. The class given is ADME, Microsome. Particulars: read-out: Stabilty.
Data set [5] can be described thus: Metabolic stability in rat liver microsomes assessed as parent compound remaining incubated for 10 mins in presence of NADPH. The class given is ADME, Microsome. Particulars: read-out: Stabilty. Background: Liver microsomes are vesicles of endoplasmic reticulum, rich in cytochrome P450 enzymes.
The nature of data set [6]: Metabolic stability in mouse liver microsomes assessed as parent compound remaining incubated for 10 mins in presence of NADPH. The class given is ADME, Microsome. Particulars: read-out: Stabilty.
The nature of data set [7]: Permeability of the compound at pH 5.5 by PAMPA. Type of data set: ADME. Particulars: read-out: permeability. A general note: PAMPA measures passive passage across an artificial lipid membrane.
Data set [8] in a line: Permeability of the compound at pH 7.4 by PAMPA. Type of data set: ADME. The settings on record: read-out: permeability.
Data set [9] in a line: Cmax in rat at 1 mg/kg, po. The settings on record: in vivo. Details: route oral, dose 1 mg/kg. The class given is ADME, organism-based.
Data set [10] is described as follows: Half life in rat at 1 mg/kg, po. Type of data set: ADME, organism-based. The settings on record: in vivo.
Data set [11] can be described thus: Cmax in cynomolgus monkey at 3 mg/kg, po. The arrangement: route oral, dose 3 mg/kg. The settings on record: in vivo. Type of data set: ADME, organism-based, Macaca fascicularis.
Data set [12] relates to Rattus norvegicus. As to the kind of experiment: Hemodynamic activity in Sprague-Dawley rat model of acute pressure-volume loop model assessed as increase in cardiac output at 10 mg/kg/min administered as iv infusion for 15 mins relative to control. The settings on record: 0.25 h. The class given is functional.
Data set [13] deals with Rattus norvegicus. As to the kind of experiment: Hemodynamic activity in Sprague-Dawley rat model of acute pressure-volume loop model assessed as increase in dP/dT at 10 mg/kg/min administered as iv infusion for 15 mins relative to control. The class given is functional. The settings on record: 0.25 h.
A short description of data set [14]: Plasma concentration in Sprague-Dawley rat model of acute pressure-volume loop model at 10 mg/kg/min administered as iv infusion for 5 mins. The class given is ADME, organism-based.
A short description of data set [15]: Plasma concentration in Sprague-Dawley rat model of acute pressure-volume loop model at 10 mg/kg/min administered as iv infusion for 15 mins. Type of data set: ADME, organism-based.
The nature of data set [16]: Plasma concentration in Sprague-Dawley rat model of acute pressure-volume loop model assessed as free fraction at 10 mg/kg/min administered as iv infusion for 5 mins. The class given is ADME, organism-based. The settings on record: in vivo.
Data set [17] is described as follows: Plasma concentration in Sprague-Dawley rat model of acute pressure-volume loop model assessed as free fraction at 10 mg/kg/min administered as iv infusion for 15 mins. The class given is ADME, organism-based. The settings on record: in vivo, 0.25 h.
Data set [18] in a line: Toxicity activity in Sprague-Dawley rat model of acute pressure-volume loop model assessed as change in blood pressure at 10 mg/kg/min administered as iv infusion for 15 mins relative to control. The class given is organism-based. The settings on record: in vivo, 0.25 h.
Data set [19] can be described thus: Toxicity activity in Sprague-Dawley rat model of acute pressure-volume loop model assessed as change in heart rate at 10 mg/kg/min administered as iv infusion for 15 mins relative to control. The class given is organism-based. Particulars: in vivo, 0.25 h.
The nature of data set [20]: in vivo. The settings on record: rat, po, 1 mg/kg.
The nature of data set [21]: in vivo. Particulars: cynomolgus monkey, po, 3 mg/kg.
Description: AUC (0 to infinity) in cynomolgus monkey at 3 mg/kg, po

Broadly, the EC50 is the concentration that produces a half-maximal response. What is called Cmax is the highest concentration seen after dosing. For orientation: half-life means how long it takes for the measured level to halve. In general, AUC(0-inf) refers to the area under the concentration-time curve extrapolated to infinity. `CCCCc1nc(=O)c(S(=O)(=O)c2ccc(C3CC3)cc2)c(O)n1-c1c(OC)cccc1OC`: the half-maximal effective concentration (EC50) on Apelin receptor [1] amounted to 0.02 nM; at Apelin receptor [2] it was 0.06 nM; at Apelin receptor [3], 0.03 nM. Also, the remaining at 10 min in data set [4] stood at 95%; in data set [5] it was 59%; in [6], 93%. In addition, the results for the Papp in [7] and in [8] were 61.5 ×10⁻⁶ cm/s and 2.2 ×10⁻⁶ cm/s, respectively. Further, the values for the Cmax in [9] and in data set [11] were 6200 nM and 1500 nM, respectively. In data set [10], this compound showed a half-life of 5.6 h. For the same compound, the Activity with Rattus norvegicus [12] is 11%; in the data set with Rattus norvegicus [13], 14%; in data set [18], “Non-Toxic”; in data set [19], “Non-Toxic”. Also, in data set [14], the concentration at 5 min amounted to 2600 nM. Moreover, the concentration at 0.25 h in [15] came out at 5800 nM. The “Cp(f)” value is 5.2 nM in data set [16] and 12 nM in data set [17]. The AUC(0-inf) in “in vivo [20]” is 3.9 µM·h; in “in vivo [21]” it was 4.7 µM·h.
